According to PubChem BioAssay (NCI):
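GI50 = concentration required for 50% inhibition of growth. TGI: concentration producing complete growth inhibition.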

Columns and labels:
Assay in all cases: NCI tumour cell line growth inhibition, 384-well format
HCC-2998 colon = test system: HCC-2998 colon
NCI-H460 NSCLC = test system: NCI-H460 NSCLC
UACC-257 melanoma = test system: UACC-257 melanoma
SF-268 CNS = test system: SF-268 CNS
SK-MEL-28 melanoma = test system: SK-MEL-28 melanoma
DU-145 prostate = test system: DU-145 prostate
IGROV1 ovarian = test system: IGROV1 ovarian
MDA-MB-435 melanoma = test system: MDA-MB-435 melanoma
KM12 colon = test system: KM12 colon
HCT-116 colon = test system: HCT-116 colon
MALME-3M melanoma = test system: MALME-3M melanoma
786-0 renal = test system: 786-0 renal
SR leukemia = test system: SR leukemia

SMILES: CC(=O)OC1C(C)OC(Oc2c(-c3ccc(O)cc3)oc3cc(O)cc(O)c3c2=O)C(O)C1OC(C)=O (stereo unspecified)
- GI50 (HCC-2998 colon): 38.7 µM
- TGI (HCC-2998 colon): > 100 µM
- GI50 (NCI-H460 NSCLC): 39.5 µM
- TGI (NCI-H460 NSCLC): > 100 µM
- GI50 (UACC-257 melanoma): 43.5 µM
- TGI (UACC-257 melanoma): > 100 µM
- GI50 (SF-268 CNS): 28.8 µM
- TGI (SF-268 CNS): 92.7 µM
- GI50 (SK-MEL-28 melanoma): 32.2 µM
- TGI (SK-MEL-28 melanoma): > 100 µM
- GI50 (DU-145 prostate): 27.6 µM
- TGI (DU-145 prostate): 77.1 µM
- GI50 (IGROV1 ovarian): 44.7 µM
- TGI (IGROV1 ovarian): > 100 µM
- GI50 (MDA-MB-435 melanoma): 40.8 µM
- TGI (MDA-MB-435 melanoma): > 100 µM
- GI50 (KM12 colon): 41.9 µM
- TGI (KM12 colon): > 100 µM
- GI50 (HCT-116 colon): 39.2 µM
- TGI (HCT-116 colon): > 100 µM
- GI50 (MALME-3M melanoma): 20.2 µM
- TGI (MALME-3M melanoma): 49.8 µM
- GI50 (786-0 renal): 62 µM
- TGI (786-0 renal): > 100 µM
- GI50 (SR leukemia): 17.7 µM
- TGI (SR leukemia): 34.2 µM
